According to patent US20090105278A1, “Selective inhibitors of human corticosteroid syntheses” (Universitat Des Saarlandes, priority 2004, published 2009):
Where a name gives a salt, the structure may show the parent alone.

Experiments:
[1] = molecular target: T1, human placental CYP19 (Homo sapiens, UniProt P11511); assay: IC50 of CYP19 (human placental microsomes); type: biochemical; conditions: human placental CYP19; testosterone substrate 2.5 μM
T1 construct: The enzyme was obtained from the microsome fraction of fresh human placenta; from tissue; host or cells: human placenta, microsomal fraction
T1 sequence (P11511 1-503): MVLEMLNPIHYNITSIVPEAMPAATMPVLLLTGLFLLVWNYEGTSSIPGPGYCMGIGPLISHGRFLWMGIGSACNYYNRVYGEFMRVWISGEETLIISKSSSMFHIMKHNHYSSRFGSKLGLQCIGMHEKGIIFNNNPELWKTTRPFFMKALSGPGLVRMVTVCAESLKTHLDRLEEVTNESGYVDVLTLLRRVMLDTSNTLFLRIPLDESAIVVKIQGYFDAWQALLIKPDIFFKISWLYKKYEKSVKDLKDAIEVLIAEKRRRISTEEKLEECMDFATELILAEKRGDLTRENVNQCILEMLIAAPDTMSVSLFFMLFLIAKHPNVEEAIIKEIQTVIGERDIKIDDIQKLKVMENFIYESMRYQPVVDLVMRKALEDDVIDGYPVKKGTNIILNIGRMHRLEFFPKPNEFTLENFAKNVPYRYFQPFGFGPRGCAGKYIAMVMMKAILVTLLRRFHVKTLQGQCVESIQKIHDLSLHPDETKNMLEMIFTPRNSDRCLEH
Method: The isolated microsomes were suspended in a minimum volume of phosphate buffer (0.05 M; pH 7.4; […]). In addition, DTT (10 mM) and EDTA (1 mM) were added to protect the enzyme from degradation reactions.
[…] […] The compounds to be tested were dissolved in DMSO and diluted with buffer to the desired concentration. The final DMSO concentration of the control and inhibitor incubations was about 20%. Each vessel was preincubated in a water bath at 30° C. for 5 min. The reaction was started by adding the microsomal protein (0.1 mg). The total volume of each mixture was 200 μl. After 14 min, the reaction was quenched by adding 200 μl of ice cold 1 mM HgCl2 solution. Two hundred microliters of a 2% aqueous suspension of dextran-coated charcoal, DCC) was added for absorbing the steroids, and the vessels were shaken for 20 min. Thereafter, the charcoal was centrifuged off at 1500 g for 5 min. The radioactive water present in the supernatant (^3H2O) was assayed by scintillation measurement using an LKB-Wallac beta counter. The calculation of the IC50 values was effected by a semilogarithmic plot of the percent inhibition against the inhibitor concentration.

[2] = molecular target: T2, human CYP11B2 (Homo sapiens, UniProt P19099); assay: Screening test in transgenic fission yeast (S. pombe PE1) expressing human CYP11B2; type: cell-based; parameters: expressed in transfected cells; conditions: S. pombe cells which express human CYP11B2; deoxycorticosterone substrate 100 nM; inhibitor 500 nM; read-out: % Inhibition human hCYP11B2
T2 sequence (P19099 25-503): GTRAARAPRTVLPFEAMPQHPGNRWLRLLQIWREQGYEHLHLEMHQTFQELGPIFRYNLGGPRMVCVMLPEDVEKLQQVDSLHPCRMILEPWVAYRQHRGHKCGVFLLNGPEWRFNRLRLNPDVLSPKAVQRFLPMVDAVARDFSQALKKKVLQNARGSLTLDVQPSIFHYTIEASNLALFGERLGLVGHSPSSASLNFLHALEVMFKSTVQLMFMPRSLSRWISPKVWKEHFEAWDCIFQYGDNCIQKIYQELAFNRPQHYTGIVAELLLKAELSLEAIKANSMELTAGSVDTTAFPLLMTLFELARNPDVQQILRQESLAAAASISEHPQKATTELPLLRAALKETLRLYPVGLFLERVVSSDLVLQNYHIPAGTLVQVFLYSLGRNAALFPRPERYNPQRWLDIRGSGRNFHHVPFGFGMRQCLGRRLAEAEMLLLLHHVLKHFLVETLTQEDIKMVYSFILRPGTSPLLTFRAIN
Method in brief: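 Deoxycorticosterone conversion to corticosterone, 18-hydroxycorticosterone and aldosterone assessed after EtOAc extraction by HPTLC with 14C phosphorimaging. Conversion rate calculated from quantified steroid spots.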

COc1cccc2c1/C(=C/c1cccnc1)CC2 [Compound 26a, 3-[(E)-(7-Methoxy-2,3-dihydro-1H-indane-1-ylidene)methyl]pyridine Hydrochloride]
IC50 [1]: 9740 nM | inhibition at 0.5 µM [2]: 76%

Fc1ccc2c(c1)CC/C2=C\c1cncnc1 [Compound 28a, 5-[(E)-(5-Fluoro-2,3-dihydro-1H-indane-1-ylidene)methyl]pyrimidine Hydrochloride]
IC50 [1]: 7450 nM | inhibition at 0.5 µM [2]: 72%

Fc1ccc2c(c1)CC/C2=C\c1cccc2cnccc12 [Compound 30a, 5-[(E)-(5-Fluoro-2,3-dihydro-1H-indane-1-ylidene)methyl]isoquinoline Hydrochloride]
IC50 [1]: 720 nM | inhibition at 0.5 µM [2]: 60%

Fc1ccc2c(c1)CC/C2=C/c1cccc2cnccc12 [Compound 30b, 5-[(Z)-(5-Fluoro-2,3-dihydro-1H-indane-1-ylidene)methyl]isoquinoline Hydrochloride]
IC50 [1]: 1940 nM | inhibition at 0.5 µM [2]: 91%

C(=C1/CCCc2ccccc21)/c1cnc[nH]1 [Compound 41a, 5-[(E)-3,4-Dihydronaphth-1(2H)-ylidenemethyl]-1H-imidazole]
IC50 [1]: 226 nM | inhibition at 0.5 µM [2]: 80%

Cl.Clc1ccc2c(c1)CC/C2=C\c1cnc[nH]1 [Compound 48a, 5-[(E)-(5-Chloro-2,3-dihydro-1H-indene-1-ylidene)methyl]-1H-imidazolium chloride]
IC50 [1]: 330 nM | inhibition at 0.5 µM [2]: 79%
